Experimental data from patent publication US20230272012A1, “PEPTIDES AND METHODS OF USE” (REALTA LIFE SCIENCES, INC., priority 2020, published 2023).
“Also recorded” adds a separate entry of the source. Peptide text beside a SMILES is read from it.

Assays:
[1] = as described in U.S. Pat. No. 10,005,818; cited from earlier work
complement activity = experiment: Hemolytic assay of plasma after IV infusion into rats; format: in vivo, rat; settings: IV in Wistar rats; early time points at the highest dose
Description: (§1) Male Wistar rats with indwelling jugular catheters were administered PA-0117, -0127, -0130, and -0133 with groups of three animals receiving 20, 200 and 400 mg/kg of the compound as a single, bolus, IV infusion. A control group of rats received an infusion of saline IV. At various time points after infusion (0.5, 2, 5, 20, 60, 120, 240, 480, 1440 minute) an aliquot of blood was drawn and plasma isolated and frozen at −70° C. pending analysis. Animals were sacrificed after the terminal blood draw and a gross necropsy performed.
(§2) PA-0117 could not be analyzed as no functional complement activity was obtained from the plasma samples. […] PA-0117 was analyzed in a C1q target acquisition assay (C1q binding assay) as described in Example 1 (FIG. 9). […] PA-0127 and -0130 levels were determined by coating the plate with the plasma samples and directly detecting the peptides by rabbit antibody raised against PA-0020 (peptide sequence […]; SEQ ID NO: 57) (FIGS. 10B and 11B). […] PA-0133 could not be detected by the available antibodies.

human neutrophils = experiment: NETosis assay (free DNA, PicoGreen); format: cell-based; settings: peptide 2 mM; neutrophils stimulated with PMA and H2O2
Description: Free DNA as a marker for NET formation was measured by PicoGreen as previously described. Briefly, 2.0×10^6 human neutrophils in 96-well plates were stimulated with 12 nM PMA and 0.05% H2O2 in RPMI with or without the indicated peptide variants (2 mM) for 2.5 hr in a 37° C. humified incubator supplemented with 5% CO2, allowing NETosis to occur. Neutrophils in RPMI alone served as a negative control. Fifty units of […] (Fisher) were added to each well to allow for digestion of released extracellular DNA for 10 min at 37° C. The preparation was then aliquoted into an adjacent well and mixed 1:1 with prepared PICO green reagent (Fisher). The fluorescence was then quantified on a BioTek microplate reader at excitation 485 nm/emission 528 nm.

[2] = format: in vivo, rat; settings: IV in Wistar rats, 20, 200, 400 mg/kg; 0.5-1440 minute
Description: as §1, §2
PA-0117: The hemolysis assay results were not useable (few pre-bleeds had any activity, and only a few other random samples had any complement activity). The PK assay for PA-0117 was performed by sandwich ELISA (FIG. 9). PA-0127: The results of the hemolysis assay are discussed herein (see also FIG. 10A). […] PA-0130: The results of the hemolysis assay are discussed herein (see also FIG. 11A). […] PA-0133: The results of the hemolysis assay are discussed herein (FIG. 12).

[3] = ABO incompatibility hemolytic assay of complement activity (CH50-type); format: cell-based, human; settings: peptide 0.8 mg/ml (~0.5 mM); read-out: decrease of ABO hemolysis compared to PA-I8Sar
Description: FIG. 1A-1B show PIC1 peptides' inhibition of complement activation in an ABO incompatibility assay. […] Inhibition of ABO incompatibility hemolysis in a CH50-type assay. Peptides are at a final concentration of 0.5 mM. Values are represented as a percent of the positive control, which consists of human O sera and AB red blood cells in GVBS^++ buffer. Data are the means of n=3 independent experiments±SEM.
For hemolytic complement assays, human red blood cells (RBCs) from type AB donors were purified, washed, and standardized to 1.0×10^9 cells/ml, as previously described. Human sera from type O donors at a 15% final concentration was combined with 0.5 mM of the peptides and the volume was brought up to 0.2 ml with GVBS^++ and 5.0×10^7 RBCs. The samples were incubated for 1 hour at 37° C. and then spun at 3,000 rpm for 5 minutes and the supernatant was collected and read at 412 nm. Values are represented as a percent of the positive control, which consists of human O sera and AB red blood cells in GVBS^++ buffer.
To assess the extent to which the peptide variants inhibit antibody-initiated complement activation, an ABO incompatibility ex vivo assay was utilized in which purified erythrocytes from a ‘type AB+’ donor are incubated with sera from a ‘type O’ subject containing anti-A and anti-B antibodies. Peptides were tested at a concentration of 0.8 mg/ml (˜0.5 mM). […] D-amino acid variants PA-0127 and PA-0133 decreased ABO hemolysis by 20% (P value=0.083) and 25% (P value=0.076), respectively. […]

CTLA-4 = biological target: T1, CTLA-4 (Homo sapiens, UniProt P16410); experiment: CTLA-4 Blockade Bioassay (Promega); format: cell-based; design: host or cells: Jurkat T cells (CTLA-4 effector cells); aAPC/Raji cells; settings: increasing concentrations; listed as RLS-0130
T1 sequence (P16410 36-223): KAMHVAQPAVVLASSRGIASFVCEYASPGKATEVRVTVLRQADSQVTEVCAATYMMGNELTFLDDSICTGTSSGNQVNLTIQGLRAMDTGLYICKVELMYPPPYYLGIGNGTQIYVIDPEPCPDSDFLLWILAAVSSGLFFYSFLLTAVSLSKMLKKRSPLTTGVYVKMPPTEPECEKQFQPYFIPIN
Description: CTLA-4 effector cells were incubated with aAPC/Raji Cells in the absence or presence of increasing concentrations of anti-CTLA-4 antibody (positive control), RLS-0127*, RLS-0130, RLS-0156, RLS-0170 and RLS-0174. Luminescence was detected in luminometer plate reader.
To assess if PIC1 peptides could block CTLA-4 inhibitory activity in a cell-based assay, select peptides were screened in the CTLA-4 Blockade Bioassay (Promega). This bioluminescent cell-based assay is used to measure the potency and stability of molecules targeting CTLA-4 and consists of two genetically engineered cell lines: CTLA-4 effector cells: Jurkat T cells expressing human CTLA-4 and a luciferase reporter driven by a native promoter which responds to TCR/CD28 activation and aAPC/Raji Cells: Raji cells expressing an engineered cell surface protein designed to activate cognate TCRs in an antigen-independent manner and endogenously expressing CTLA-4 ligands CD80 and CD86. When the two cell types are co-cultured, CTLA-4 competes with CD28 for their shared ligands, CD80 and CD86 and thus inhibits CD28 pathway activation and promoter-mediated luminescence. Addition of a molecule that blocks the interaction of CTLA-4 with its ligands CD80 and CD86 results in promoter-mediated luminescence.

PD-1/PD-L1 interaction = biological target: T2, PD-1/PD-L1 interaction (Homo sapiens, UniProt Q15116+Q9NZQ7); experiment: PD-1/PD-L1 Blockade Bioassay (Promega); format: cell-based; settings: increasing peptide concentrations
T2 construct: host or cells: PD-1 effector cells; PD-L1 aAPC/CHO-K1 cells
T2 sequence (Q15116 25-288): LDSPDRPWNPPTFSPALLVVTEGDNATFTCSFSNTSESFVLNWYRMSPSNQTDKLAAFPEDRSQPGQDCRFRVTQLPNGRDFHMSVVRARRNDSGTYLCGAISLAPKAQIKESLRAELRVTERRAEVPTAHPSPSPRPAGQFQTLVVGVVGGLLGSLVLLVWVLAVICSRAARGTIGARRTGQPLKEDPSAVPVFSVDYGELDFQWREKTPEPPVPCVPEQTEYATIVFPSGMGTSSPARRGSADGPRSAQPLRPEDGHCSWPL
T2 sequence (Q9NZQ7 19-290): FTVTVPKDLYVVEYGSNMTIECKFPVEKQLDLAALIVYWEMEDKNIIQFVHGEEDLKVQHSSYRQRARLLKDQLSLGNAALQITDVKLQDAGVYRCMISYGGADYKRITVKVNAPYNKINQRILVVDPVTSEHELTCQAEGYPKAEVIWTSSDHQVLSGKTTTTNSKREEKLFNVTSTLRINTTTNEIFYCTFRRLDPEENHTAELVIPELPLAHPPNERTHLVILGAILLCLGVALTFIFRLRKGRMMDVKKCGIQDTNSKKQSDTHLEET
Description: PD-1 effector cells were incubated with PD1-L1 aAPC cells in the absence or presence of increasing concentrations of anti-PD-1 antibody (positive control) and select PIC1 peptides. Luminescence was detected in luminometer plate reader.
To assess if PIC1 peptides could block PD-1 inhibitory activity in a cell-based assay, select peptides were screened in the PD-1/PD-L1 Blockade Bioassay (Promega). The PD-1/PD-L1 Blockade Bioassay is a biologically relevant MOA-based assay that can be used to measure the potency and stability of antibodies and other biologics designed to block the PD-1/PD-L1 interaction. This bioluminescent cell-based assay is used to measure the potency and stability of molecules targeting PD-1 and consists of two genetically engineered cell lines: aAPC/CHO-K1 Cells are CHO-K1 cells with an engineered cell surface protein designed to activate cognate TCRs in an antigen-independent manner. When the two cell types are co-cultured, the PD-1/PD-L1 interaction inhibits TCR signaling and NFAT-mediated luciferase activity. Addition of an inhibitory molecule that blocks either PD-1 or PD-L1 releases the inhibitory signal and results in TCR signaling and NFAT-mediated luciferase activity.

[4] = test system: purified human Pan T-cells; experiment: T-cell exhaustion protocol (Dynabeads re-stimulation); format: cell-based; settings: peptides 2 mg/ml at each stimulation
Description: Purified human pan-T-cells were subject to stimulation with Dynabeads every 48 hours over the period of 8 days with cells also receiving PIC1 peptides (2 mg/ml) at each stimulation. Cells not receiving Dynabeads were run in parallel to assess background levels of Caspase 3/7 signal. At the eighth day, cells were harvested and the levels of Caspase 3/7 determined by ELISA.
Purified human pan-T-cells were subject to stimulation with Dynabeads every 48 hours over the period of 8 days with cells also receiving PIC1 peptides (2 mg/ml) at each stimulation. Cell supernatants were collected at each stimulation and levels of IL-2 and IFN-gamma assayed by ELISA.
T-cell exhaustion is a form of T-cell dysfunction that occurs in cancer. It is defined by poor effector function, reduction in cytokine release (e.g., IL-2, TNF-alpha, IFN-gamma), sustained expression of inhibitory receptors (e.g., PD-1, LAG-3, CD244, CD160) with the progressive loss of effector function due to overstimulation. Exhaustion prevents optimal control of tumor growth. Exhausted T cells are prevalent in the tumor microenvironment (TME) and can lead to T-cell apoptosis. T-cell exhaustion is reversible, and pharmaceutical inhibition of T-cell exhaustion has been considered a promising strategy by many cancer researchers. To ascertain if PIC1 peptides could reverse T-cell exhaustion and increase T cell viability and effector function, a T-cell exhaustion protocol was developed. To induce T-cell exhaustion, purified human Pan T-cells were stimulated with T-Activator CD3/CD28 Dynabeads and cells are washed and re-stimulated every 48 hours. PIC1 peptides were added to the cells after each stimulation with Dynabeads. After three to four stimulations cells were harvested for readouts which consisted of assessing T-cell apoptosis by measuring Caspase 3/7 levels and production of cytokines IL-2 and IFN-gamma which is indicative of T-cell functionality. […] To further evaluate if PIC1 peptides could restore T-cell functionality in cells that have undergone the exhaustion protocol, the inventors next assessed production of cytokines IL-2 and IFN-gamma. Supernatants from the cells after each stimulation were collected and the cytokines measured by ELISA. […] The lower level of IFN-gamma signal compared to IL-2 was consistently seen in this assay.

Molecule: IALILEPI(Sar)CQERAA (IALILEPIXCQERAA; sarcosine at position 9; MOD_RES (9)..(9) Sarcosine) [PA-0089]
- water solubility without PEGylation [1]: water soluble without PEGylation

Molecule: CC[C@H](C)[C@H](N)C(=O)N[C@@H](C)C(=O)N[C@@H](CC(C)C)C(=O)N[C@H](C(=O)N[C@@H](CC(C)C)C(=O)N[C@@H](CCC(=O)O)C(=O)N1CCC[C@H]1C(=O)N(C)CC(=O)N[C@H](CS)C(=O)N[C@@H](CS)C(=O)N[C@@H](CCC(N)=O)C(=O)N[C@@H](CCC(=O)O)C(=O)N[C@@H](CCCNC(=N)N)C(=O)N[C@@H](C)C(=O)N[C@@H](C)C(=O)O)[C@@H](C)CC [PA-0127, IALILEP(Sar)dCCQERAA] (HELM PEPTIDE1{I.A.L.I.L.E.P.[Sar].[dC].C.Q.E.R.A.A}$$$$V2.0)
- inhibition of complement activity in the hemolytic assay of rat plasma (complement activity): inhibition of complement activity
- reduction of free DNA (marker of NETosis) (human neutrophils): did not reduce levels of free DNA; also recorded: did not show a reduction in free DNA
- peptide level in plasma over time [2]: increased binding was observed at early time points with diminished signal at later time points
- decrease in ABO hemolysis compared to reference peptide [3]: 20%

Molecule: CC[C@H](C)[C@H](N)C(=O)N[C@@H](C)C(=O)N[C@@H](CC(C)C)C(=O)N[C@H](C(=O)N[C@@H](CC(C)C)C(=O)N[C@@H](CCC(=O)O)C(=O)N1CCC[C@H]1C(=O)N(C)CC(=O)N[C@@H](CS)C(=O)N[C@@H](CS)C(=O)N[C@@H](CCC(N)=O)C(=O)N[C@H](CCC(=O)O)C(=O)N[C@@H](CCCNC(=N)N)C(=O)N[C@@H](C)C(=O)N[C@@H](C)C(=O)O)[C@@H](C)CC [PA-0130, IALILEP(Sar)CCQdERAA] (HELM PEPTIDE1{I.A.L.I.L.E.P.[Sar].C.C.Q.[dE].R.A.A}$$$$V2.0)
- inhibitory activity in CTLA-4 blockade bioassay (luminescence) (CTLA-4): showed inhibitory activity; also recorded: able to inhibit CTLA-4 mediated cell signaling
- inhibition of complement activity in the hemolytic assay of rat plasma (complement activity): inhibition of complement activity
- reduction of free DNA (marker of NETosis) (human neutrophils): reduction in free DNA similar to that of the PA-I8Sar control; also recorded: ability to inhibit NET formation
- inhibition of PD-1/PD-L1 inhibitory signaling (luminescence) (PD-1/PD-L1 interaction): did not show PD-1/PD-L1 inhibitory activity
- Caspase 3/7 levels ([4]; eighth day): very low to undetectable levels of Caspase 3/7
- IL-2 signal at stimulation 2 ([4]; supernatant ELISA): showed an IL-2 signal at stimulation 2
- peptide level in plasma over time [2]: increased binding was observed at early time points with diminished signal at later time points

Molecule: IALILEP(Sar)CCQERAA (IALILEPXCCQERAA; sarcosine at position 8; MOD_RES (8)..(8) Sarcosine) [PA-0088, reference compound]
- reduction of free DNA (marker of NETosis) (human neutrophils): reduced the level of free DNA
- water solubility without PEGylation [1]: water soluble without PEGylation
